Experimental data: PubChem BioAssay (NCI)
“And” between values parts separate entries of the source, which are not always exact repeats. Identical values can stand only once.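 A five-concentration, 48-hour dose response in 96-well plates underlies each endpoint, interpolated linearly between surrounding concentrations. Here, GI50 denotes the concentration required for 50% inhibition of growth. The concentration for full growth arrest is given as TGI.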

Columns and labels:
Assay in all cases: NCI anticancer screen, dose series, 48 h
NCI-H522 lung = test system: NCI-H522 lung
UACC-257 melanoma = test system: UACC-257 melanoma
MOLT-4 leukemia = test system: MOLT-4 leukemia
SK-MEL-28 melanoma = test system: SK-MEL-28 melanoma
UACC-62 melanoma = test system: UACC-62 melanoma
SNB-75 CNS = test system: SNB-75 CNS
RPMI-8226 leukemia = test system: RPMI-8226 leukemia
SK-OV-3 ovarian = test system: SK-OV-3 ovarian
HCT-116 colon = test system: HCT-116 colon
HOP-92 NSCLC = test system: HOP-92 NSCLC
OVCAR-5 ovarian = test system: OVCAR-5 ovarian
DU-145 prostate = test system: DU-145 prostate
NCI-H460 lung = test system: NCI-H460 lung
NCI-H23 lung = test system: NCI-H23 lung
OVCAR-8 ovarian = test system: OVCAR-8 ovarian
NCI/ADR-RES ovarian = test system: NCI/ADR-RES ovarian
SF-268 CNS = test system: SF-268 CNS
MALME-3M melanoma = test system: MALME-3M melanoma
K-562 leukemia = test system: K-562 leukemia

Structure (SMILES)	TGI (NCI-H522 lung) [µM]	TGI (UACC-257 melanoma)	TGI (MOLT-4 leukemia) [µM]	TGI (SK-MEL-28 melanoma)	TGI (UACC-62 melanoma)	TGI (SNB-75 CNS) [µM]	TGI (RPMI-8226 leukemia) [µM]	TGI (SK-OV-3 ovarian)	TGI (HCT-116 colon) [µM]	TGI (HOP-92 NSCLC) [µM]	TGI (OVCAR-5 ovarian)	TGI (DU-145 prostate) [µM]	TGI (NCI-H460 lung) [µM]	TGI (NCI-H23 lung) [µM]	TGI (OVCAR-8 ovarian)	TGI (NCI/ADR-RES ovarian) [µM]	TGI (SF-268 CNS) [µM]	TGI (MALME-3M melanoma)	TGI (K-562 leukemia) [µM]	GI50 (MOLT-4 leukemia) [µM]
CC(=O)OCCCCN1C(=O)CSc2ccccc21	> 100	> 100 µM	> 100	> 100 µM	> 100 µM	> 100	> 100	> 100 µM	> 100	> 100	> 100 µM	> 100	> 100	–	–	–	–	–	–	–
CC(C)CNCCc1ccccn1	> 100	> 100 µM	–	> 100 µM	> 100 µM	> 100	–	> 100 µM	> 100	> 100	> 100 µM	> 100	> 100	> 100	> 100 µM	> 100	> 100	> 100 µM	–	–
CCOc1ccccc1Nc1ccc(N)cc1S(=O)(=O)O	> 100	> 100 µM	> 100	> 100 µM	> 100 µM	> 100	–	–	> 100	> 100	> 100 µM	> 100	> 100	> 100	–	> 100	> 100	> 100 µM	> 100	–
COc1ccc(C(=O)CCN(C)C)c2ccccc12	21.9	> 58.7 µM	46	60.3 µM	> 58.1 µM	61.5	4.44	> 100 µM	52.5	41.9	> 96.5 µM	> 62	> 100	51.4	40.5 µM	> 100	55.4	34.4 µM	60	–
O=Cc1ccccc1CCn1c(=O)c2cc3c(=O)n(CCc4ccccc4C=O)c(=O)c3cc2c1=O	> 100	> 100 µM	> 100	> 100 µM	> 100 µM	> 100	–	> 100 µM	> 100	–	–	–	> 100	> 100	> 100 µM	–	> 100	> 100 µM	> 100	–
CN1c2c(nc(N)[nH]c2=O)NCC1CCNc1ccc(C(=O)NC(CCC(=O)O)C(=O)O)cc1 (centres undefined)	2470	2360 µM	2650	2290 µM	1650 µM	2660	2930	2350 µM	1390	2900	2880 µM	2660	1570	3630	2640 µM	3810	2710	2770 µM	841	–
N#Cc1ccc([N+](=O)[O-])cc1NC(N)=S	> 100	–	> 100	> 100 µM	–	> 100	> 100	> 100 µM	> 100	> 100	> 100 µM	–	–	–	> 100 µM	–	> 100	> 100 µM	–	–
CCOc1cc(C2SCC(=O)N2c2ccc3c(c2)Oc2c(Cl)c4c(c(Cl)c2=N3)Oc2cc(N3C(=O)CSC3c3ccc(O)c(OCC)c3)ccc2N=4)ccc1O (centres undefined)	> 100	> 100 µM	> 100	> 100 µM	–	50.5	> 100	–	41.4	59.1	> 100 µM	> 100	> 100	47.6	> 100 µM	> 100	> 100	–	> 100	–
COc1nc2ccc(CNc3ccc(C(=O)NC(CCC(=O)O)C(=O)O)cc3)cc2nc1OC (centres undefined)	> 100	> 100 µM	> 100	> 100 µM	> 100 µM	> 100	> 100	> 100 µM	–	–	> 100 µM	> 100	> 100	> 100	> 100 µM	> 100	> 100	> 100 µM	> 100	–
C=CCn1c(=O)c(Br)nn(CCOCP(=O)(OCC)OCC)c1=O	> 100	> 100 µM	> 100	> 100 µM	–	> 100	> 100	–	–	> 100	> 100 µM	> 100	> 100	> 100	> 100 µM	> 100	> 100	> 100 µM	> 100	–
COc1cc(NC(C)=O)ccc1C(=O)N/N=C/c1ccco1	> 100	–	> 100	> 100 µM	> 100 µM	> 100	> 100	> 100 µM	> 100	> 100	> 100 µM	> 100	–	> 100	> 100 µM	> 100	> 100	> 100 µM	> 100	–
CC[C@@H]1CSC(/C=C/C2OC3OC(C)(C)OC3C3OC(C)(C)OC23)=N1 (some centres undefined)	12.1	26.4 µM	26.6	34.7 µM	26.8 µM	29.6	32.5	91.4 µM	14.2	19.2	22.8 µM	5.19	61.2	23.1	23.8 µM	95.7	18.8	23.8 µM	62.4	–
CC(ON1[C@](C)(c2ccccc2)CC[C@@]1(C)c1ccccc1)c1ccccc1 (some centres undefined)	50.3	> 100 µM	46.1	> 100 µM	–	54.6	58.2	> 100 µM	> 100	> 100	> 100 µM	> 100	> 100	> 100	> 100 µM	> 100	> 100	> 100 µM	> 100	–
CC(C)C1=CC2=CC[C@@H]3[C@](C)(CCC[C@@]3(C)C(=O)O)[C@H]2CC1	> 100	> 100 µM	> 75.7	> 100 µM	68.3 µM	> 100	> 79.7	> 100 µM	> 80.2	> 84.6	> 100 µM	–	> 100	> 89.9	> 100 µM	–	> 100	> 100 µM	> 100	–
CC(=O)OCC1=CC2OC(=O)C3=COC(OC4OC(CO)C(O)C(O)C4O)C1C32 (centres undefined)	> 100	> 100 µM	–	> 100 µM	> 100 µM	> 100	> 100	> 100 µM	> 100	> 100	> 100 µM	> 100	–	> 100	> 100 µM	> 100	> 100	–	–	–
O=C1CCCCN1	> 1120	> 1120 µM	> 1120	> 1120 µM	> 1120 µM	> 1120	> 1120	> 1120 µM	> 1120	> 1120	> 1120 µM	–	> 1120	> 1120	> 1120 µM	> 707	> 1120	> 1120 µM	> 1120	–
CN(C)c1ccc(C2CC(=O)CC(c3ccc(N(C)C)cc3)C23C(=O)NC(=S)NC3=O)cc1 (centres undefined)	–	> 100 µM	> 100	> 100 µM	> 100 µM	31.2	> 100	> 100 µM	> 100	> 100	> 100 µM	> 100	> 100	> 100	–	> 100	> 100	> 100 µM	> 100	–
O=C1/C(=C/C=C/c2ccccc2)N=C(c2ccccc2)N1c1ccc(S(=O)(=O)Nc2nccs2)cc1	36.6	> 100 µM	> 100	–	61.7 µM	> 100	68.2	85.2 µM	> 100	> 100	> 100 µM	> 100	> 100	63.8	> 100 µM	> 100	39.8	> 100 µM	> 100	–
C1=CC=C2NCCc3cccc(c3)CCNC3=CC=CC=CC3=NCCCCCCN=C2C=C1	47.2	41.8 µM	38.3	–	50.7 µM	49.9	31.1	70.6 µM	–	54	47.8 µM	–	25.3	48.3	61.6 µM	–	> 100	> 100 µM	> 100	–
CC1(O)C2(c3ccccc3)CCC[N+]1(C)CC2 (centres undefined)	–	> 100 µM	> 100	> 100 µM	> 100 µM	> 100	> 100	> 100 µM	> 100	> 100	> 100 µM	> 100	> 100	> 100	> 100 µM	> 100	–	> 100 µM	> 100	–
CC1=C[C@H]([C@H]2C=C(C)C(C(N)=O)=CN2Cc2c(Cl)cccc2Cl)N(Cc2c(Cl)cccc2Cl)C=C1C(N)=O	> 75	> 75 µM	> 75	> 75 µM	> 75 µM	–	> 75	> 75 µM	> 75	65.8	> 75 µM	> 75	> 75	> 75	> 75 µM	> 75	> 75	> 75 µM	> 75	–
CC1=C(SCCO)C(=O)c2ccccc2C1=O	14.6	25.8 µM	> 100	25.9 µM	31.7 µM	30.1	–	29.6 µM	17.4	3.72	33.6 µM	29.6	26.8	30.4	28.6 µM	31.9	29.9	27.3 µM	> 100	–
Nc1ncnc2c1ncn2[C@@H]1O[C@H](COP(=O)(O)OP(=O)(O)OC[C@H]2O[C@@H](OCCCO)[C@H](O)[C@@H]2O)[C@@H](O)[C@H]1O	> 100	> 100 µM	> 100	> 100 µM	> 100 µM	> 100	> 100	> 100 µM	> 100	> 100	> 100 µM	> 100	> 100	> 100	> 100 µM	> 100	> 100	> 100 µM	> 100	–
CC[C@@]1(O)C[C@H](OC2CC(N(C)C)C(OC3CC(O)C(OC4CCC(=O)C(C)O4)C(C)O3)C(C)O2)c2c(cc3c(c2O)C(=O)c2c(O)cccc2C3=O)C1C(=O)OC (some centres undefined)	–	0.202 µM and 0.993 µM	0.655	0.215 µM and 0.806 µM	0.26 µM and 0.527 µM	–	–	6 µM and 12.7 µM	–	0.0897	3.11 µM and 1.56 µM	0.446	1.42	0.635	0.679 µM and 4.49 µM	0.673	–	0.0948 µM and 0.569 µM	–	0.00383
O=S(=O)(O)c1cc(S(=O)(=O)O)c2c(N=Nc3ccc(S(=O)(=O)O)c4ccccc34)c(O)ccc2c1	> 100	> 100 µM	> 100	> 100 µM	> 100 µM	> 100	> 100	> 100 µM	> 100	> 100	> 100 µM	> 100	–	> 100	> 100 µM	> 100	> 100	> 100 µM	> 100	–
CCCCC(=O)c1c(O)ccc2c(C)cc(=O)oc12	> 100	> 100 µM	> 100	> 100 µM	> 100 µM	> 100	> 100	–	> 100	> 100	> 100 µM	> 100	> 100	> 100	> 100 µM	> 100	> 100	> 100 µM	> 100	–
